target: T1, Human PPARα (Homo sapiens, UniProt Q07869); assay: Human PPARα Reporter Assay (luciferase); type: cell-based; details: human PPARα reporter cells, overnight incubation, antagonism; read-out: Luciferase IC50
T1 construct: host or cells: proprietary non-human mammalian cells
T1 sequence (Q07869 1-468): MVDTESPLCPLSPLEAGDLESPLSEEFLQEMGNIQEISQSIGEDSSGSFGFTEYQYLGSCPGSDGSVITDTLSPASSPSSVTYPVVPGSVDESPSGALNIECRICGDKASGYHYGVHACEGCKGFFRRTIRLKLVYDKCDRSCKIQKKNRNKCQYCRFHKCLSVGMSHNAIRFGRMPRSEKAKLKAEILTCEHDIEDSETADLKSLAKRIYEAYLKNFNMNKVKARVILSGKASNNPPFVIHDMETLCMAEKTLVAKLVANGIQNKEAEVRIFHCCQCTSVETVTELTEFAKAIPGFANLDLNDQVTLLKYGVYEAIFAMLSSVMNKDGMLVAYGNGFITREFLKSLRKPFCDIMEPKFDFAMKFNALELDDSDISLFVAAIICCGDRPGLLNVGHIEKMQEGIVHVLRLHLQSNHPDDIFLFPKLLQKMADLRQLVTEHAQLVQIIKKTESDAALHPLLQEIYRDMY
Procedure: Human PPARα Reporter Assay
The screening of test compounds for agonist or antagonist activities against human PPARα receptors was performed using a commercial kit, Human PPARα Reporter Assay System (Indigo Biosciences, Cat. #IB00111).
This nuclear receptor assay system utilizes proprietary non-human mammalian cells engineered to provide constitutive, high-level expression of Human PPARα. Because these cells incorporate a PPARα-responsive luciferase reporter gene, quantifying expressed luciferase activity provides a sensitive surrogate measure of PPARα activity in the treated cells. The primary application of this reporter assay system is in the screening of test samples to quantify any functional activity, either agonist or antagonist, that they may exert against human PPARα.
Briefly, reporter cells are dispensed into wells of the assay plate and then immediately dosed with test compounds. Following an overnight incubation, the treatment media is discarded and Luciferase Detection Reagent (LDR) is added. The intensity of light emission from the ensuing luciferase reaction provides a sensitive measure that is directly proportional to the relative level of PPARα activation in the reporter cells.

Question: For `CCn1c(CCCc2ccc(-c3ccc(OC(F)F)c(C(=O)O)c3)cc2)nn(Cc2ccc(C(C)(C)C)cc2)c1=O` [Example 121, 4′-(3-(1-(4-(tert-Butyl)benzyl)-4-ethyl-5-oxo-4,5-dihydro-1H-1,2,4-triazol-3-yl)propyl)-4-(difluoromethoxy)-[1,1′-biphenyl]-3-carboxylic acid], which IC50 is on record?
Answer: 39 nM

Question: `CCn1c(CCCc2ccc(-c3ccc(OC)c(C4(C(=O)O)CCC4)c3)cc2)nn(Cc2ccc(C(C)(C)C)cc2)c1=O` [Example 133, 1-(4′-(3-(1-(4-(tert-Butyl)benzyl)-4-ethyl-5-oxo-4,5-dihydro-1H-1,2,4-triazol-3-yl)propyl)-4-methoxy-[1,1′-biphenyl]-3-yl)cyclobutanecarboxylic acid] was tested. Which IC50 did it give?
Answer: 597 nM

Question: Which IC50 does the source give for `CCNC(=O)Nc1cccc(-c2ccc(CCCc3nn(Cc4ccc(C(C)(C)C)cc4)c(=O)n3CC)cc2)n1` [Example 171, 1-(6-(4-(3-(1-(4-(tert-Butyl)benzyl)-4-ethyl-5-oxo-4,5-dihydro-1H-1,2,4-triazol-3-yl)propyl)phenyl)pyridin-2-yl)-3-ethylurea] here?
Answer: 816 nM

Question: For `CCn1c(CCCc2ccc(-c3ccc(CC(=O)O)nc3)cc2)nn(Cc2ccc(C(C)(C)C)cc2)c1=O` [Example 43, 2-(5-{4-[3-(1-{[4-(tert-Butyl)phenyl]methyl}-4-ethyl-5-oxo-1,2,4-triazolin-3-yl)propyl]phenyl}-2-pyridyl)acetic acid], which IC50 is on record?
Answer: 898 nM

Question: `CCn1c(CCCc2ccc(-c3cccc(CNS(=O)(=O)c4ccccc4)c3)cc2)nn(Cc2ccc(C(C)(C)C)cc2)c1=O` [Example 177, 1-{[4-(tert-Butyl)phenyl]methyl}-4-ethyl-3-{3-[4-(3-{[(phenylsulfonyl)amino]methyl}phenyl)phenyl]propyl}-1,2,4-triazolin-5-one] was tested. Which IC50 did it give?
Answer: 419 nM

Question: `CCn1c(CCCc2ccc(-c3cccc(N)n3)cc2)nn(Cc2ccc(C(C)(C)C)cc2)c1=O` [Example 3, 3-(3-(4-(6-Aminopyridin-2-yl)phenyl)propyl)-1-(4-(tert-butyl)benzyl)-4-ethyl-1H-1,2,4-triazol-5(4H)-one] was tested. Which IC50 did it give?
Answer: 271 nM

Question: `CCn1c(CCCc2ccc(-c3ccc(NC(=O)NS(=O)(=O)c4ccccc4)cn3)cc2)nn(Cc2ccc(C(C)(C)C)cc2)c1=O` [Example 160, N-((6-(4-(3-(1-(4-(tert-Butyl)benzyl)-4-ethyl-5-oxo-4,5-dihydro-1H-1,2,4-triazol-3-yl)propyl)phenyl)pyridin-3-yl)carbamoyl)benzenesulfonamide] was tested. Which IC50 did it give?
Answer: 429 nM

Question: How did the IC50 turn out when `CCn1c(CCCc2ccc(-c3cc(C)c(NS(=O)(=O)c4ccccc4)cn3)cc2)nn(Cc2ccc(C(C)(C)C)cc2)c1=O` [Example 126, 1-{[4-(tert-Butyl)phenyl]methyl}-4-ethyl-3-[3-(4-{4-methyl-5-[(phenylsulfonyl)amino](2-pyridyl)}phenyl)propyl]-1,2,4-triazolin-5-one] was run?
Answer: 201 nM

Question: `CCn1c(CCCc2ccc(-c3ccc4c(c3)C(C(=O)O)CO4)cc2)nn(Cc2ccc(C(C)(C)C)cc2)c1=O` (racemic) [Example 96, (rac)-5-(4-(3-(1-(4-(tert-Butyl)benzyl)-4-ethyl-5-oxo-4,5-dihydro-1H-1,2,4-triazol-3-yl)propyl)phenyl)-2,3-dihydrobenzofuran-3-carboxylic acid] was tested. Which IC50 did it give?
Answer: 272 nM

Question: For `CCn1c(CCCc2ccc(-c3cc(C(F)(F)F)cc(CC(=O)O)n3)cc2)nn(Cc2ccc(C(C)(C)C)cc2)c1=O` [Example 48, 2-(6-{4-[3-(1-{[4-(tert-Butyl)phenyl]methyl}-4-ethyl-5-oxo(1,2,4-triazolin-3-yl))propyl]phenyl}-4-(trifluoromethyl)-2-pyridyl)acetic acid], which IC50 is on record?
Answer: 426 nM

Question: For `CCn1c(CCCc2ccc(-c3cccc(C(O)C(=O)NC4CC4)c3)cc2)nn(Cc2ccc(C(C)(C)C)cc2)c1=O` (stereo not shown) [Example 56, 2-(4′-(3-(1-(4-(tert-Butyl)benzyl)-4-ethyl-5-oxo-4,5-dihydro-1H-1,2,4-triazol-3-yl)propyl)-[1,1′-biphenyl]-3-yl)-N-cyclopropyl-2-hydroxyacetamide], which IC50 is on record?
Answer: 330 nM

Question: How did the IC50 turn out when `CCCOc1ccc(-c2ccc(CCCc3nn(Cc4ccc(C(C)(C)C)cc4)c(=O)n3CC)cc2)cc1C(=O)O` [Example 168, 4′-(3-(1-(4-(tert-Butyl)benzyl)-4-ethyl-5-oxo-4,5-dihydro-1H-1,2,4-triazol-3-yl)propyl)-4-propoxy-[1,1′-biphenyl]-3-carboxylic acid] was run?
Answer: 9 nM

Question: Which IC50 does the source give for `CCn1c(CCCc2ccc(-c3ccc(OC)c(C(=O)O)n3)cc2)nn(Cc2ccc(C(C)(C)C)cc2)c1=O` [Example 139, 6-(4-(3-(1-(4-(tert-Butyl)benzyl)-4-ethyl-5-oxo-4,5-dihydro-1H-1,2,4-triazol-3-yl)propyl)phenyl)-3-methoxypicolinic acid] here?
Answer: 89 nM

Question: How did the IC50 turn out when `CCn1c(CCCc2ccc(-c3ccc(NS(=O)(=O)c4ccc(OC)cc4)cn3)cc2)nn(Cc2ccc(C(C)(C)C)cc2)c1=O` [Example 91, 1-{[4-(tert-Butyl)phenyl]methyl}-4-ethyl-3-{3-[4-(5-{[(4-methoxyphenyl)sulfonyl]amino}(2-pyridyl))phenyl]propyl}-1,2,4-triazolin-5-one] was run?
Answer: 136 nM

Question: `CCn1c(CCCc2ccc(-c3ccc(C4(O)COC4)cn3)cc2)nn(Cc2ccc(C(C)(C)C)cc2)c1=O` [Example 197, 1-(4-(tert-Butyl)benzyl)-4-ethyl-3-(3-(4-(5-(3-hydroxyoxetan-3-yl)pyridine-2-yl)phenyl)propyl)-1H-1,2,4-triazol-5(4H)-one] was tested. Which IC50 did it give?
Answer: 106 nM

Question: With `CCn1c(CCCc2ccc(-c3ccc(SC)c(CC(=O)O)c3)cc2)nn(Cc2ccc(C(C)(C)C)cc2)c1=O` [Example 64, 2-(5-{4-[3-(1-{[4-(tert-Butyl)phenyl]methyl}-4-ethyl-5-oxo(1,2,4-triazolin-3-yl))propyl]phenyl}-2-methylthiophenyl)acetic acid] as the molecule, how does the IC50 read?
Answer: 38 nM

Question: Which IC50 does the source give for `CCOc1ccc(-c2ccc(CCCc3nn(Cc4ccc(C(C)(C)C)cc4)c(=O)n3CC)cc2)nc1N` [Example 60, 3-{3-[4-(6-Amino-5-ethoxy(2-pyridyl))phenyl]propyl}-1-{[4-(tert-butyl)phenyl]methyl}-4-ethyl-1,2,4-triazolin-5-one] here?
Answer: 63 nM

Question: How did the IC50 turn out when `CCn1c(CCCc2ccc(-c3ccc4[nH]cc(C(=O)O)c4c3)cc2)nn(Cc2ccc(C(C)(C)C)cc2)c1=O` [Example 70, 5-(4-(3-(1-(4-(tert-Butyl)benzyl)-4-ethyl-5-oxo-4,5-dihydro-1H-1,2,4-triazol-3-yl)propyl)phenyl)-1H-indole-3-carboxylic acid] was run?
Answer: 270 nM

Question: With `CCn1c(CCCc2ccc(-c3ccc(OC)c(NS(=O)(=O)c4ccc(Cl)nc4)n3)cc2)nn(Cc2ccc(C(C)(C)C)cc2)c1=O` [Example 113, 1-{[4-(tert-Butyl)phenyl]methyl}-3-{3-[4-(6-{[(6-chloro(3-pyridyl))sulfonyl]amino}-5-methoxy(2-pyridyl))phenyl]propyl}-4-ethyl-1,2,4-triazolin-5-one] as the molecule, how does the IC50 read?
Answer: 8 nM

Question: `CC(C)(C)c1ccc(Cn2nc(CCCc3ccc(-c4cccc(CC(=O)O)c4)cc3)n(-c3ccccc3)c2=O)cc1` [Example 32, 2-(4′-(3-(1-(4-(tert-Butyl)benzyl)-5-oxo-4-phenyl-4,5-dihydro-1H-1,2,4-triazol-3-yl)propyl)-[1,1′-biphenyl]-3-yl)acetic acid] was tested. Which IC50 did it give?
Answer: 2990 nM

Question: With `CCn1c(CCCc2ccc(-c3ccc(OC(F)(F)F)c(CC(=O)O)c3)cc2)nn(Cc2ccc(C(C)(C)C)cc2)c1=O` [Example 130, 2-(4′-(3-(1-(4-(tert-Butyl)benzyl)-4-ethyl-5-oxo-4,5-dihydro-1H-1,2,4-triazol-3-yl)propyl)-4-(trifluoromethoxy)-[1,1′-biphenyl]-3-yl)acetic acid] as the molecule, how does the IC50 read?
Answer: 11 nM

Question: For `CCn1c(CCCc2ccc(-c3ccc(OC)c(CC(=O)O)c3)cc2OC)nn(Cc2ccc(C(C)(C)C)cc2)c1=O` [Example 158, 2-(4′-(3-(1-(4-(tert-Butyl)benzyl)-4-ethyl-5-oxo-4,5-dihydro-1H-1,2,4-triazol-3-yl)propyl)-3′,4-dimethoxy-[1,1′-biphenyl]-3-yl)acetic acid], which IC50 is on record?
Answer: 184 nM

Question: With `CCn1c(CCCc2ccc(-c3ccc(OC)c(NS(=O)(=O)c4ccccc4)n3)cc2)nn(Cc2ccc(C(C)(C)C)cc2)c1=O` [Example 59, 1-{[4-(tert-Butyl)phenyl]methyl}-4-ethyl-3-[3-(4-{5-methoxy-6-[(phenylsulfonyl)amino](2-pyridyl)}phenyl)propyl]-1,2,4-triazolin-5-one] as the molecule, how does the IC50 read?
Answer: 3 nM

Question: How did the IC50 turn out when `CCn1c(CCCc2ccc(-c3ccc(OC(F)(F)F)c(C(=O)O)c3)cc2)nn(Cc2ccc(C(C)(C)C)cc2)c1=O` [Example 131, 4′-(3-(1-(4-(tert-Butyl)benzyl)-4-ethyl-5-oxo-4,5-dihydro-1H-1,2,4-triazol-3-yl)propyl)-4-(trifluoromethoxy)-[1,1′-biphenyl]-3-carboxylic acid] was run?
Answer: 15 nM

Question: With `CCn1c(CCCc2ccc(-c3ccc(OC)c(CNC)c3)cc2)nn(Cc2ccc(C(C)(C)C)cc2)c1=O` [Example 180, 1-{[4-(tert-Butyl)phenyl]methyl}-4-ethyl-3-[3-(4-{4-methoxy-3-[(methylamino)methyl]phenyl}phenyl)propyl]-1,2,4-triazolin-5-one] as the molecule, how does the IC50 read?
Answer: 640 nM

— patent publication US9505728B2, “Triazolone compounds and uses thereof” (INCEPTION 2, INC., priority 2012, dated 2016)
